Patent publication US8530466B2, “Use of 2,4-pyrimidinediamines for the treatment of atherosclerosis” (Rigel Pharmaceuticals, Inc., priority 2008, dated 2013)

Tests used:
[1] = tested on: Human mast cells (CHMC); assay: Mast cell activation induced by FcγR cross-linking: degranulation (tryptase); format: cell-based; conditions: anti-IgG 1 μg/ml, 60-minute incubation
Description: Human mast cells were cultured and differentiated from CD38-negative progenitor cell as described in U.S. Patent Publication No. 2005-234049, incorporated herein by reference. For example, 65 μl of various concentrations of 6-(5-fluoro-2-(3,4,5-trimethoxyphenylamino) pyrimidin-4-ylamino)-2,2-dimethyl-2H-pyrido[3,2-b][1,4]oxazin-3(4H)-one (compound 1), prepared in MT (137 mM NaCl, 2.7 mM KCl, 1.8 mM CaCl2, 1.0 mM MgCl2, 5.6 mM Glucose, 20 mM Hepes (pH 7.4), 0.1% Bovine Serum Albumin, (Sigma A4503)) containing 2% MeOH and 1% DMSO, or control buffer were added to duplicate 96-well V-bottom plates. Pelleted and resuspended (in warm MT) CHMC cells (65 μl) were added to each 96-well plate, mixed and incubated for 1 hr at 37° C. […] After a 60-minute incubation at 37° C., cells and cell debris were pelleted by centrifugation at 1000 rpm for 10 min and tryptase and leukotriene C4 levels were measured.
To measure tryptase levels, 25 μl of supernatant from each well was transferred to a fresh 96-well black bottom plate, to which 100 μl of fresh tryptase substrate solution [(Z-Ala-Lys-Arg-AMC2TFA; Enzyme Systems Products, #AMC-246)] […] After 30 min incubation at room temperature, the optical density of the plates is measured at 355 nm/460 nm on a spectrophotometric plate reader. […]

[2] = tested on: Human mast cells (CHMC); assay: Mast cell activation induced by FcγR cross-linking: LTC4 release (ELISA); format: cell-based; conditions: anti-IgG 1 μg/ml
Description: (§1) Human mast cells were cultured and differentiated from CD38-negative progenitor cell as described in U.S. Patent Publication No. 2005-234049, incorporated herein by reference. […] A80-105A3) final concentration 1 μg/ml, was added to the test wells. MT (25 μl) was added to control wells. After a 60-minute incubation at 37° C., cells and cell debris were pelleted by centrifugation at 1000 rpm for 10 min and tryptase and leukotriene C4 levels were measured. Leukotriene C4 (LTC4) levels were quantified using an ELISA kit on appropriately diluted supernatant samples following the supplier's instructions (Cayman Chemical Co., Cat No. 520211). Inhibition of release and/or synthesis of lipid mediators was assessed by measuring the release of LTC4 and inhibition of release and/or synthesis of cytokines was monitored by quantifying TNFα, IL-8, GM-CSF, IL-10 and IL-13. Cytokine (TNFα, IL-8, GM-CSF, IL-10, IL-13) production was measured 6-8 hrs post-IgG crosslinking. Leukotriene and cytokine levels were quantified using the following commercial ELISA kits: LTC4 (Cayman Chemical #520211), TNFα (Biosource #KHC3011), GM-CSF (Biosource #KHC0901), IL-10 (Biosource #KHC0122), and IL-13 (Biosource #KHC0132).

[3] = tested on: Human mast cells (CHMC); assay: Mast cell activation induced by FcγR cross-linking: cytokine production (ELISA); format: cell-based; conditions: 6-8 hrs post-IgG crosslinking
Description: as §1, with “measured.” for “measured. Leukotriene C4 (LTC4) levels were quantified using an ELISA kit on appropriately diluted supernatant samples following the supplier's instructions (Cayman Chemical Co., Cat No. 520211).”

[4] = tested on: Platelets in PRP; assay: CD62P surface expression by stimulated platelets (flow cytometry); format: cell-based, Human; conditions: 15 min at 37° C.
Description: Human peripheral blood, from healthy volunteers who had not taken any medication for at least 7 days, was drawn into Vacutainer-ACD tubes (Acid citrate dextrose (ACD) Solution Tubes, VWR Cat. No. VT4606). Platelet-rich plasma (PRP) and platelet-poor plasma (PPP) were prepared by differential centrifugation (200 g and >2500 g, respectively, 20 min, RT). Platelets in PRP were incubated for 10 min at 37° C. with test article-DMSO solutions that had been previously diluted in MT buffer (137 mM NaCl, 2.7 mM KCl, 1.8 mM CaCl2, 1.0 mM MgCl2, 5.6 mM glucose, 20 mM Hepes, 0.1% BSA; pH 7.4). The test articles included dimethyl Sulfoxide (DMSO) (Sigma-Aldrich, Cat No. D2650), wortmannin Penicillium funiculosum (Sigma-Aldrich, Cat No. W1628), and 6-(5-fluoro-2-(3,4,5-trimethoxyphenylamino)pyrimidin-4-ylamino)-2,2-dimethyl-2H-pyrido[3,2-b][1,4]oxazin-3(4H)-one (compound 1).
Cells were stimulated with collagen (Chronolog Corp. Cat. No. 385) at 20 μg/mL, adenosine 5′-diphosphate (ADP) (Sigma-Aldrich Cat. No. A2754) at 33 μM, or phorbol 12-Myristate 13-Acetate (PMA) (Sigma-Aldrich Cat. No. P8139) at 33 ng/mL, for 15 min at 37° C., then incubated with staining antibody (anti-CD62P PE) at RT in the dark for 20 min, and fixed with paraformaldehyde (Cytofix fixation buffer) in the dark for 30 min at RT. Finally, cells were washed with PBS containing 2% fetal bovine serum and stored at 4° C. in the dark prior to flow cytometry. Measurements were performed using a FACScalibur flow cytometer (BD Biosciences, San Jose, Calif., USA). CD62P expression was expressed as geometric mean fluorescence on the vertical axis.

Structure (SMILES): COc1cc(Nc2ncc(F)c(Nc3ccc4c(n3)NC(=O)C(C)(C)O4)n2)cc(OC)c1OC [Compound 1, 6-(5-fluoro-2-(3,4,5-trimethoxyphenylamino)pyrimidin-4-ylamino)-2,2-dimethyl-2H-pyrido[3,2-b][1,4]oxazin-3(4H)-one]
- EC50 ([1]; Homo sapiens, Mast cell, 1 h): 53 nM
- EC50 ([1]; listed as lot B): 76 nM
- EC50 ([2]; Homo sapiens, Mast cell): 36 nM
- EC50 ([2]; listed as lot B): 47 nM
- EC50 ([3]; listed as lot B, read-out: EC50 GMCSF): 67 nM
- EC50 ([3]; listed as lot B, read-out: EC50 IL-8): 62 nM
- EC50 ([3]; listed as lot B, read-out: EC50 IL-10): 148 nM
- EC50 ([3]; listed as lot B, read-out: EC50 IL-13): 148 nM
- EC50 ([3]; listed as lot B, read-out: EC50 TNFα): 120 nM
- EC50 ([3]; Homo sapiens, Mast cell, read-out: EC50 GMCSF): 46 nM
- EC50 ([3]; Homo sapiens, Mast cell, read-out: EC50 IL-8): 45 nM
- EC50 ([3]; Homo sapiens, Mast cell, read-out: EC50 IL-10): 125 nM
- EC50 ([3]; Homo sapiens, Mast cell, read-out: EC50 IL-13): 90 nM
- CD62P surface upregulation in platelets induced by ADP ([4]; ADP 33 μM): did not inhibit
- CD62P surface upregulation in platelets induced by PMA ([4]; PMA 33 ng/mL): did not inhibit
- collagen receptor mediated platelet activation (CD62P surface expression) ([4]; collagen 20 μg/mL): inhibited
